Assay results taken from patent publication US9373800B2, “Organic light emitting element having lithium—boron complex” (CANON KABUSHIKI KAISHA, priority 2014, dated 2016).

Assay: Evaluation of stability to water (100 nm deposited film, water dropped, thickness step height meter)
Format: physicochemical
Details: for State of the film after water was dropped, After 1 min / State of the film after water was dropped, After 10 min: 100 nm film deposited on glass substrate, water dropped onto film, Alpha-Step; for State of the film after water was dropped, After 1 min: after 1 minute; for Dissolution of the film in water (text summary of Table 1): film soaked in water
Experimental: Water was dropped onto the films, and the states of the films were examined after 1 minute and 10 minutes with a thickness step height meter (Alpha-Step).

Row | Compound | State of the film after water was dropped, After 1 min | State of the film after water was dropped, After 10 min | Dissolution of the film in water (text summary of Table 1)
1 | [Cs+].[F-] [Comparative compound 2, cesium fluoride] | Dissolved | Dissolved | dissolved immediately
2 | [F-].[Li+] [Comparative compound 1, lithium fluoride] | Dissolved | Dissolved | dissolved immediately
3 | [Li+].c1cnn([B-](n2cccn2)(n2cccn2)n2cccn2)c1 [Comparative compound 3] | Partially dissolved | Dissolved | gradually dissolved
